From patent US20260363239A1, “COMPOSITIONS TO CONTROL LEVEL OF UNDESIRABLE MATERIALS” (Solugen, Inc., priority 2022, published 2026) come the findings set out here.

≈ marks a conversion by molar mass, not a printed value.

Assay [1] relates to general wild strain bacteria. The experiment in a line: Minimum inhibitory concentration (MIC) against general wild strain bacteria. The assay is classed as cell-based. The method, then:
(§1) A minimum inhibitory concentration (MIC) of a MUM was determined and compared to that of the biocide glutaraldehyde. Specifically, the indicated compound or blend of compounds was used to treat a wildtype E. coli strain and the effect of this treatment on bacterial count used to determine the MIC.
(§2) However, the mixture of the glyoxal and glycolaldehyde (1,4 dioxane 2,5 diol) provided competitive performance to glutaraldehyde.

In another assay the test system is E. Coli. Briefly: Minimum inhibitory concentration (MIC) against E. coli. The assay is classed as cell-based. The conditions noted are these: Escherichia coli. As for the experimental part: as §1, §2

For the molecule `O=CCCCC=O` [40% glutaraldehyde, glutaraldehyde], the MIC (in assay [1]; against E. Coli) was 1000 µg/mL (≈ 9.99 mM) throughout.

For `OC1COC(O)CO1` (stereo not drawn) [39% 1,4 dioxane 2,5 diol, 1,4 dioxane 2,5 diol], the MIC in assay [1] is above 1000 µg/mL; against E. Coli, 1000 µg/mL (≈ 8.33 mM).

In the case of `O=CC=O` [39% glyoxal, glyoxal], the MIC in assay [1] is above 1000 µg/mL; against E. Coli it was 1000 µg/mL (≈ 17.2 mM).
